Source: patent US10493060B2, “Spirocyclic compounds” (ZENO ROYALTIES & MILESTONES, LLC, priority 2015, dated 2019)

Assays:
Activated ERK1 = Activated ERK1 (Homo sapiens (Human), UniProt P27361); test: Active ERK1 kinase assay (Mobility Shift Assay); type: biochemical
Protocol: (§1) Activated ERK1 and ERK2 activity was determined in a Mobility Shift Assay (MSA) format as follows: Compound and kinase solution were prepared with assay buffer (20 mM HEPES, 0.01% Triton X-100, 2 mM DTT, pH7.5) and mixed and incubated in for 30 mins at rt. ERK1 & ERK2 were then activated by the addition of Fl-Substrate, ATP and metal solution and incubated for 1 h at rt. After 1 h, the reaction was terminated by the addition of […] of Termination Buffer (QuickScout Screening Assist MSA; Carna Biosciences) to the well. The reaction mixture was applied to LabChip™ system (PerkinElmer), and the product and substrate peptide peaks were separated, analyzed and quantitated. The kinase reaction is evaluated by the product ratio calculated from peak heights of product (P) and substrate (S) peptides (P/(P+S)).

Activated ERK2 = Activated ERK2 (Homo sapiens (Human), UniProt P28482); test: Active ERK2 kinase assay (Mobility Shift Assay); type: biochemical
Chain of Activated ERK2 (P28482 whole entry): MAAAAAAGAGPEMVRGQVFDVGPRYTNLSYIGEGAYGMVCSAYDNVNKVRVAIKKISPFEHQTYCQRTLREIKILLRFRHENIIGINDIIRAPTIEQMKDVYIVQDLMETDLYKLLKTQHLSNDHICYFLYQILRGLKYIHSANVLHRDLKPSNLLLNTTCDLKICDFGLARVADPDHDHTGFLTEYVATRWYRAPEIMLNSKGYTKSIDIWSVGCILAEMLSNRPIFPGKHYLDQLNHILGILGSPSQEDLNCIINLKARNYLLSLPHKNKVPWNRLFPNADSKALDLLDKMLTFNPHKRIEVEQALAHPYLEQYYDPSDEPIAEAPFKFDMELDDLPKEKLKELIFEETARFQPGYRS
Protocol: as §1

Chain of Activated ERK1 (P27361 whole entry): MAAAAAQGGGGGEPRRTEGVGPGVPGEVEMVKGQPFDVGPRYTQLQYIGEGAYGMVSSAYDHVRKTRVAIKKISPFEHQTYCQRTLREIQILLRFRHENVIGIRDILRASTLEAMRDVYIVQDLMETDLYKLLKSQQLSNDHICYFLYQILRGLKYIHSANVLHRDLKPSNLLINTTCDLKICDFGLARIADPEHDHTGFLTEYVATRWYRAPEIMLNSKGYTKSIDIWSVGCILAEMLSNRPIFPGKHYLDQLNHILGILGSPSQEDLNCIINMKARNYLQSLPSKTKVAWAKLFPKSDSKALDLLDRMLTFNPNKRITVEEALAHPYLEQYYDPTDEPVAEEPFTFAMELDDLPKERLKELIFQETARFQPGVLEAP

| Compound | IC50 (Activated ERK1) | IC50 (Activated ERK2) |
| --- | --- | --- |
| CC(C)Oc1ccc(-c2n[nH]c3ccc(N4CCC5(CCN(CC(=O)N6CCN(c7ccc(-c8ncn(C)n8)cc7)CC6)C5)C4)cc23)cn1 (stereo not drawn) [Example 2, 2-(7-(3-(6-Isopropoxypyridin-3-yl)-1H-indazol-5-yl)-2,7-diazaspiro[4.4]nonan-2-yl)-1-(4-(4-(1-methyl-1H-1,2,4-triazol-3-yl)phenyl)piperazin-1-yl)ethan-1-one] | ≥ 250 nM | ≥ 250 nM |
| CC(C)Oc1ccc(-c2n[nH]c3ccc(N4CCC5(CCN(CC(=O)N6CCN(c7ccc(-c8ncn(C)n8)cc7)CC6)C5)C4=O)cc23)cn1 (stereo not drawn) [Example 3, 2-(3-(6-Isopropoxypyridin-3-yl)-1H-indazol-5-yl)-7-(2-(4-(4-(1-methyl-1H-1,2,4-triazol-3-yl)phenyl)piperazin-1-yl)-2-oxoethyl)-2,7-diazaspiro[4.4]nonan-1-one] | ≤ 50 nM | ≤ 50 nM |
| CC(C)Oc1ccc(-c2n[nH]c3ccc(N4CC[C@]5(CCN(CC(=O)N6CC=C(c7ccc(-c8ncn(C9CC9)n8)cc7)CC6)C5)C4=O)cc23)cn1 [Example 50, (S)-7-(2-(4-(4-(1-Cyclopropyl-1H-1,2,4-triazol-3-yl)phenyl)-3,6-dihydropyridin-1(2H)-yl)-2-oxoethyl)-2-(3-(6-isopropoxypyridin-3-yl)-1H-indazol-5-yl)-2,7-diazaspiro[4.4]nonan-1-one] | – | ≤ 50 nM |
| CC(C)Oc1ccc(-c2n[nH]c3ccc(N4CC[C@]5(CCN(CC(=O)N6CC=C(c7ccc(-c8ncn(C)n8)c(F)c7)CC6)C5)C4=O)cc23)cn1 [Example 56, (S)-7-(2-(4-(3-Fluoro-4-(1-methyl-1H-1,2,4-triazol-3-yl)phenyl)-3,6-dihydropyridin-1(2H)-yl)-2-oxoethyl)-2-(3-(6-isopropoxypyridin-3-yl)-1H-indazol-5-yl)-2,7-diazaspiro[4.4]nonan-1-one] | – | ≤ 50 nM |
| CC(C)Oc1ccc(-c2n[nH]c3ccc(N4CC[C@]5(CCN(CC(=O)N6CC=C(c7ccc(-n8ccnn8)cc7)CC6)C5)C4=O)cc23)cn1 [Example 14, (S)-7-(2-(4-(4-(1H-1,2,3-Triazol-1-yl)phenyl)-3,6-dihydropyridin-1(2H)-yl)-2-oxoethyl)-2-(3-(6-isopropoxypyridin-3-yl)-1H-indazol-5-yl)-2,7-diazaspiro[4.4]nonan-1-one] | ≤ 50 nM | ≤ 50 nM |
| CCNc1n[nH]c2ccc(N3CC[C@]4(CCN(CC(=O)N5CC=C(c6ccc(-c7ncn(C)n7)cc6)CC5)C4)C3=O)cc12 [Example 53, (S)-2-(3-(Ethylamino)-1H-indazol-5-yl)-7-(2-(4-(4-(1-methyl-1H-1,2,4-triazol-3-yl)phenyl)-3,6-dihydropyridin-1(2H)-yl)-2-oxoethyl)-2,7-diazaspiro[4.4]nonan-1-one] | – | 50 to 250 nM |
| Cn1cnc(-c2ccc(C3=CCN(C(=O)CN4CC[C@]5(CCN(c6ccc7[nH]nc(-c8ccc(S(C)(=O)=O)cc8)c7c6)C5=O)C4)CC3)cc2)n1 [Example 58, (S)-7-(2-(4-(4-(1-Methyl-1H-1,2,4-triazol-3-yl)phenyl)-3,6-dihydropyridin-1(2H)-yl)-2-oxoethyl)-2-(3-(4-(methylsulfonyl)phenyl)-1H-indazol-5-yl)-2,7-diazaspiro[4.4]nonan-1-one] | – | ≤ 50 nM |
| CC(C)Oc1ccc(-c2n[nH]c3ccc(N4CC[C@@]5(CCN(CC(=O)N6CC=C(c7ccc(-c8ncn(C)n8)cc7)CC6)C5)C4=O)cc23)cn1 [Example 11, (R)-2-(3-(6-Isopropoxypyridin-3-yl)-1H-indazol-5-yl)-7-(2-(4-(4-(1-methyl-1H-1,2,4-triazol-3-yl)phenyl)-3,6-dihydropyridin-1 (2H)-yl)-2-oxoethyl)-2,7-diazaspiro[4.4]nonan-1-one] | ≥ 250 nM | ≥ 250 nM |
| Cc1noc(-c2ccc(C3=CCN(C(=O)CN4CC[C@]5(CCN(c6ccc7[nH]nc(-c8ccc(OC(C)C)nc8)c7c6)C5=O)C4)CC3)cc2)n1 [Example 54, (S)-2-(3-(6-Isopropoxypyridin-3-yl)-1H-indazol-5-yl)-7-(2-(4-(4-(3-methyl-1,2,4-oxadiazol-5-yl)phenyl)-3,6-dihydropyridin-1(2H)-yl)-2-oxoethyl)-2,7-diazaspiro[4.4]nonan-1-one] | – | ≤ 50 nM |
| CC(C)Oc1ccc(-c2n[nH]c3ccc(N4CC[C@]5(CCN(CC(=O)N6CC=C(c7ccc(-c8ncn(C)n8)cc7F)CC6)C5)C4=O)cc23)cn1 [Example 55, (S)-7-(2-(4-(2-Fluoro-4-(1-methyl-1H-1,2,4-triazol-3-yl)phenyl)-3,6-dihydropyridin-1(2H)-yl)-2-oxoethyl)-2-(3-(6-isopropoxypyridin-3-yl)-1H-indazol-5-yl)-2,7-diazaspiro[4.4]nonan-1-one] | – | ≤ 50 nM |
| CC(C)Oc1ccc(-c2n[nH]c3ccc(N4CC[C@]5(CCN(CC(=O)N6CC=C(c7ccc(-c8ncn(CCO)n8)cc7)CC6)C5)C4=O)cc23)cn1 [Example 47, (S)-7-(2-(4-(4-(1-(2-Hydroxyethyl)-1H-1,2,4-triazol-3-yl)phenyl)-3,6-dihydropyridin-1(2H)-yl)-2-oxoethyl)-2-(3-(6-isopropoxypyridin-3-yl)-1H-indazol-5-yl)-2,7-diazaspiro[4.4]nonan-1-one] | – | ≤ 50 nM |
| Cc1ccc(-c2n[nH]c3ccc(N4CC[C@]5(CCN(CC(=O)N6CC=C(c7ccc(-c8ncn(C)n8)cc7)CC6)C5)C4=O)cc23)cn1 [Example 57, (S)-7-(2-(4-(4-(1-Methyl-1H-1,2,4-triazol-3-yl)phenyl)-3,6-dihydropyridin-1(2H)-yl)-2-oxoethyl)-2-(3-(6-methylpyridin-3-yl)-1H-indazol-5-yl)-2,7-diazaspiro[4.4]nonan-1-one] | – | ≤ 50 nM |
| CC(C)Oc1ccc(-c2n[nH]c3ccc(N4CCCC5(CCN(CC(=O)N6CC=C(c7ccc(-c8ncn(C)n8)cc7)CC6)C5)C4=O)cc23)cn1 (stereo not drawn) [Example 5, 7-(3-(6-Isopropoxypyridin-3-yl)-1H-indazol-5-yl)-2-(2-(4-(4-(1-methyl-1H-1,2,4-triazol-3-yl)phenyl)-3,6-dihydropyridin-1 (2H)-yl)-2-oxoethyl)-2,7-diazaspiro[4.5]decan-6-one] | ≥ 250 nM | 50 to 250 nM |
| Cc1cc(-c2n[nH]c3ccc(N4CCC5(CCN(CC(=O)N6CC=C(c7ccc(-c8ncn(C)n8)cc7)CC6)C5)C4=O)cc23)ccn1 (stereo not drawn) [Example 6, 7-(2-(4-(4-(1-Methyl-1H-1,2,4-triazol-3-yl)phenyl)-3,6-dihydropyridin-1(2H)-yl)-2-oxoethyl)-2-(3-(2-methylpyridin-4-yl)-1H-indazol-5-yl)-2,7-diazaspiro[4.4]nonan-1-one] | ≤ 50 nM | ≤ 50 nM |
| COCCn1cnc(-c2ccc(C3=CCN(C(=O)CN4CC[C@]5(CCN(c6ccc7[nH]nc(-c8ccc(OC(C)C)nc8)c7c6)C5=O)C4)CC3)cc2)n1 [Example 49, (S)-2-(3-(6-Isopropoxypyridin-3-yl)-1H-indazol-5-yl)-7-(2-(4-(4-(1-(2-methoxyethyl)-1H-1,2,4-triazol-3-yl)phenyl)-3,6-dihydropyridin-1(2H)-yl)-2-oxoethyl)-2,7-diazaspiro[4.4]nonan-1-one] | – | ≤ 50 nM |
| Cn1cnc(-c2ccc(C3=CCN(C(=O)CN4CC[C@]5(CCN(c6ccc7[nH]nc(C#N)c7c6)C5=O)C4)CC3)cc2)n1 [Example 51, (S)-5-(7-(2-(4-(4-(1-Methyl-1H-1,2,4-triazol-3-yl)phenyl)-3,6-dihydropyridin-1(2H)-yl)-2-oxoethyl)-1-oxo-2,7-diazaspiro[4.4]nonan-2-yl)-1H-indazole-3-carbonitrile] | – | ≤ 50 nM |
| Cn1cnc(-c2ccc(N3CCN(C(=O)CN4CC[C@]5(CCN(c6ccc7[nH]nc(C8CC8)c7c6)C5=O)C4)CC3)cc2)n1 [Example 44, (S)-2-(3-Cyclopropyl-1H-indazol-5-yl)-7-(2-(4-(4-(1-methyl-1H-1,2,4-triazol-3-yl)phenyl)piperazin-1-yl)-2-oxoethyl)-2,7-diazaspiro[4.4]nonan-1-one] | – | 50 to 250 nM |
| Cn1cnc(-c2ccc(C3=CCN(C(=O)CN4CC[C@]5(CCN(c6ccc7[nH]nc(C8CC8)c7c6)C5=O)C4)CC3)cc2)n1 [Example 45, (S)-2-(3-Cyclopropyl-1H-indazol-5-yl)-7-(2-(4-(4-(1-methyl-1H-1,2,4-triazol-3-yl)phenyl)-3,6-dihydropyridin-1(2H)-yl)-2-oxoethyl)-2,7-diazaspiro[4.4]nonan-1-one] | – | ≤ 50 nM |
| Cn1cnc(-c2ccc(C3=CCN(C(=O)CN4CC[C@]5(CCN(c6ccc7[nH]nc(C(F)F)c7c6)C5=O)C4)CC3)cc2)n1 [Example 52, (S)-2-(3-(Difluoromethyl)-1H-indazol-5-yl)-7-(2-(4-(4-(1-methyl-1H-1,2,4-triazol-3-yl)phenyl)-3,6-dihydropyridin-1(2H)-yl)-2-oxoethyl)-2,7-diazaspiro[4.4]nonan-1-one] | – | ≤ 50 nM |
| Cn1cc(-c2n[nH]c3ccc(N4CC[C@]5(CCN(CC(=O)N6CC=C(c7ccc(-c8ncn(C)n8)cc7)CC6)C5)C4=O)cc23)cn1 [Example 48, (S)-7-(2-(4-(4-(1-Methyl-1H-1,2,4-triazol-3-yl)phenyl)-3,6-dihydropyridin-1 (2H)-yl)-2-oxoethyl)-2-(3-(1-methyl-1H-pyrazol-4-yl)-1H-indazol-5-yl)-2,7-diazaspiro[4.4]nonan-1-one] | – | ≤ 50 nM |
| CCn1cnc(-c2ccc(C3=CCN(C(=O)CN4CC[C@]5(CCN(c6ccc7[nH]nc(-c8ccc(OC(C)C)nc8)c7c6)C5=O)C4)CC3)cc2)n1 [Example 46, (S)-7-(2-(4-(4-(1-Ethyl-1H-1,2,4-triazol-3-yl)phenyl)-3,6-dihydropyridin-1(2H)-yl)-2-oxoethyl)-2-(3-(6-isopropoxypyridin-3-yl)-1H-indazol-5-yl)-2,7-diazaspiro[4.4]nonan-1-one] | – | ≤ 50 nM |
